Assay results from patent US11352330B2, “Phenoxymethyl derivatives” (Hoffmann-La Roche Inc., priority 2015, dated 2022).

The compounds below were run against human ATX (Homo sapiens (Human), UniProt Q13822) (assay: Human ATX enzyme inhibition assay (fluorescence quenching, MR121 substrate)). Conditions: human His-tagged ATX 30 nM, MR121 substrate 1 μM, 30° C.
Format: biochemical
Method: Human ATX Enzyme Inhibition Assay
ATX inhibition was measured by a fluorescence quenching assay using a specifically labeled substrate analogue (MR121 substrate). To obtain this MR121 substrate, BOC and TBS protected 6-amino-hexanoic acid (R)-3-({2-[3-(2-{2-[2-(2-amino-ethoxy)-ethoxy]-ethoxy}-ethoxy)-propionylamino]-ethoxy}-hydroxy-phosphoryloxy)-2-hydroxy-propyl ester (Ferguson et al., Org Lett 2006, 8 (10), 2023) was labeled with MR121 fluorophore (CAS 185308-24-1, 1-(3-carboxypropyl)-11-ethyl-1,2,3,4,8,9,10,11-octahydro-dipyrido[3,2-b:2′,3′-i]phenoxazin-13-ium) on the free amine of the ethanolamine side and then, after deprotection, subsequently with tryptophan on the side of the aminohexanoic acid.
Assay working solutions were made as follows:
Assay buffer (50 mM Tris-HCl, 140 mM NaCl, 5 mM KCl, 1 mM CaCl2, 1 mM MgCl2, 0.01% Triton-X-100, pH 8.0;
ATX solution: ATX (human His-tagged) stock solution (1.08 mg/mL in 20 mM bicine, pH 8.5, 0.15 M NaCl, 10% glycerol, 0.3% CHAPS, 0.02% NaN3), diluted to 1.4-2.5× final concentration in assay buffer;
MR121 substrate solution: MR121 substrate stock solution (800 μM MR121 substrate in DMSO), diluted to 2-5× final concentration in assay buffer.
Test compounds (10 mM stock in DMSO, 8 μL) were obtained in 384 well sample plates (Corning Costar #3655) and diluted with 8 μL DMSO. Row-wise serial dilutions were made by transferring 8 μL cpd solution to the next row up to row O. The compound and control solutions were mixed five times and 2 μL were transferred to 384 well assay plates (Corning Costar #3702). Then, 15 μL of 41.7 nM ATX solution was added (30 nM final concentration), mixed five times and then incubated for 15 minutes at 30° C. 10 μL of MR121 substrate solution was added (1 μM final concentration), mixed 30 times and then incubated for 15 minutes at 30° C.

| IC50 [µM] | Compound |
| --- | --- |
| 0.227 | Cc1cc(OCc2n[nH]c(=O)n2C)c(-c2cnccn2)cc1Cl [Example B22, 3-[(4-Chloro-5-methyl-2-pyrazin-2-ylphenoxy)methyl]-4-methyl-1H-1,2,4-triazol-5-one] |
| 0.006 | Cc1cc(OCc2n[nH]c(=O)n2C)c(-c2cc(OCC3CCCO3)ccc2F)cc1Cl (stereo not shown) [Example B74] |
| 0.019 | Cc1ccc(C(C)C)c(OCc2n[nH]c(=O)n2C)c1 [Example A27, 4-Methyl-3-[(5-methyl-2-propan-2-ylphenoxy)methyl]-1H-1,2,4-triazol-5-one] |
| 0.467 | Cc1cc(OCc2n[nH]c(=O)n2C)c(-c2ccnn2C)cc1Cl [Example B30] |
| 0.008 | N#Cc1cc(-c2cc(OC3CC3)ccc2F)c(OCc2n[nH]c3ncccc23)cc1Cl [Example D53] |
| 0.031 | Cn1c(COc2cc(Cl)c(C#N)cc2-c2ccc(F)cc2)n[nH]c1=O [Example B32] |
| 0.004 | COCCN(C)C(=O)c1ccc(F)c(-c2cc(Cl)c(C)cc2OCc2n[nH]c3cnccc23)c1 [Example D46] |
| 13.2 | Cc1cc(OCc2n[nH]c3nc(OCCO)ccc23)c(C(C)(C)C)cc1Cl [Example D13, 2-[[3-[(2-t-Butyl-4-chloro-&-methylphenoxy)methyl]-1H-pyrazolo[3,4-b]pyridin-6-yl]oxy]ethanol] |
| 0.001 | CC(C)(C)c1cc(Cl)c(F)cc1OCc1n[nH]c2nc(F)ccc12 [Example D12] |
| 0.005 | Cn1c(COc2cc(Cl)c(C#N)cc2-c2cc(OCC3CCCO3)ccc2F)n[nH]c1=O (stereo not shown) [Example B87] |
| 0.006 | Cc1cc(OCc2n[nH]c3nc(N(C)CCO)ccc23)c(C(C)(C)C)cc1Cl [Example D8, 2-[[3-[(2-tert-Butyl-4-chloro-5-methylphenoxy)methyl]-1H-pyrazolo[3,4-b]pyridin-6-yl]-methylamino]ethanol] |
| 0.017 | Cc1cc(OCc2n[nH]c3ncccc23)c(-c2cccc(C(=O)N(C)C)c2)cc1Cl [Example D18] |
| 0.079 | Cc1cc(OCc2n[nH]c(=O)n2C)c(-c2cc(Cl)cc(C(N)=O)c2)cc1Cl [Example B14] |
| 0.011 | COc1ncccc1-c1cc(Cl)c(C)cc1OCc1n[nH]c2cnccc12 [Example D47] |
| 0.009 | Cc1cc(OCc2n[nH]c(=O)n2C)c(-c2cc(C(=O)N3CCCCC3)ccc2F)cc1Cl [Example B69] |
| 0.002 | CC(C)(C)c1cc(Cl)c(C#N)cc1OCc1n[nH]c2ncccc12 [Example D52] |
| 0.01 | Cc1cc(OCc2n[nH]c(=O)n2C)c(-c2cc(OCC3CCOCC3)ccc2F)cc1Cl [Example B72] |
| 0.002 | Cc1cc(OCc2n[nH]c3nc(OCC(O)CO)ncc23)c(C(C)(C)C)cc1Cl (stereo not shown) [Example D34, 3-[[3-[(2-tert-Butyl-4-chloro-5-methylphenoxy)methyl]-1H-pyrazolo[3,4-d]pyrimidin-6-yl]oxy]propane-1,2-diol] |
| 0.01 | Cc1cc(OCc2n[nH]c3ncccc23)c(-c2cc(C(=O)N3CCOCC3)ccc2F)cc1Cl [Example D22] |
| 0.913 | Cc1cc(OCc2n[nH]c(=O)n2C)c(-c2cncc(C(N)=O)c2)cc1Cl [Example B20] |
| 0.005 | Cc1cc(OCc2n[nH]c(=O)n2C)c(-c2cc(CN(C)C(=O)C3CC3)ccc2F)cc1Cl [Example B80] |
| 0.016 | Cc1cc(OCc2n[nH]c(=O)n2C)c(-c2cc(OCC(C)C)ccc2F)cc1Cl [Example B58] |
| 0.009 | Cc1cc(OCc2n[nH]c(=O)n2C)c(-c2cc(C(=O)N3CCCC3)ccc2F)cc1Cl [Example B62] |
| 0.013 | COC(=O)CCNC(=O)c1cccc(-c2cc(Cl)c(C)cc2OCc2n[nH]c(=O)n2C)c1 [Example B44, Methyl 3-[[3-[5-chloro-4-methyl-2-[(4-methyl-5-oxo-1H-1,2,4-triazol-3-yl)methoxy]phenyl]benzoyl]amino]propanoate] |
| 0.007 | COc1cccc(-c2cc(Cl)c(C)cc2OCc2n[nH]c(=O)n2C)c1F [Example B90] |
| 0.081 | Cc1nc(-c2cccc(-c3cc(C#N)c(Cl)cc3OCc3n[nH]c(=O)n3C)c2)no1 [Example B35] |
| 0.01 | Cc1cc(OCc2n[nH]c(=O)n2C)c(-c2cccc(C(=O)N3CCCCC3)c2)cc1Cl [Example B8] |
| 0.006 | Cc1cc(OCc2n[nH]c(=O)n2C)c(-c2cc(OCC3CCOC3)ccc2F)cc1Cl (stereo not shown) [Example B67] |

| IC50 [µM] | Compound |
| --- | --- |
| 0.009 | Cc1cc(OCc2n[nH]c(=O)n2C)c(-c2cc(C(=O)N(C)Cc3ccccn3)ccc2F)cc1Cl [Example B71] |
| 0.015 | Cc1cc(OCc2n[nH]c(=O)n2C)c(C2CC2)cc1Cl [Example A19] |
| 0.01 | Cc1cc(OCc2n[nH]c(=O)n2C)c(-c2cc(CNC(=O)C3CC3)ccc2F)cc1Cl [Example B79] |
| 0.029 | Cc1cc(OCc2n[nH]c(=O)n2C)c(-c2cccc(C(=O)N(C)CCO)c2)cc1Cl [Example B45, 3-[5-Chloro-4-methyl-2-[(4-methyl-5-oxo-1H-1,2,4-triazol-3-yl)methoxy]phenyl]-N-(2-hydroxyethyl)-N-methylbenzamide] |
| 0.002 | Cc1cc(C(C)(C)C)c(OCc2n[nH]c3cnccc23)cc1C#N [Example D49] |
| 0.001 | Cc1cc(OCc2n[nH]c(=O)n2C)c(-c2cc(OC3CC3)ccc2F)cc1Cl [Example B92] |
| 0.173 | Cc1cc(OCc2n[nH]c(=O)n2C)c(-c2cc(C(=O)O)ccc2C)cc1Cl [Example B50, 3-[5-chloro-4-methyl-2-[(4-methyl-5-oxo-1H-1,2,4-triazol-3-yl)methoxy]phenyl]-4-methylbenzoic acid] |
| 0.007 | COCC(=O)N(C)Cc1ccc(F)c(-c2cc(Cl)c(C)cc2OCc2n[nH]c(=O)n2C)c1 [Example B78] |
| 0.052 | Cc1cc(OCc2n[nH]c(=O)n2C)c(-c2cccnc2Cl)cc1Cl [Example B18] |
| 0.003 | Cc1cc(OCc2n[nH]c(=O)n2C)c(-c2ccccc2)cc1Cl [Example B1, 3-[(4-Chloro-5-methyl-2-phenylphenoxy)methyl]-4-methyl-1H-1,2,4-triazol-5-one] |
| 0.0045 | CC(C)(C)c1cc(Cl)c(F)cc1OCc1n[nH]c2nc(NCCO)ccc12 [Example D11] |
| 0.007 | Cc1cc(OCc2n[nH]c(=O)n2C)c(-c2cc(C(=O)N(C)C3CCCC3)ccc2F)cc1Cl [Example B66] |
| 0.019 | Cc1cc(OCc2n[nH]c(=O)n2C)c(C2CCC2)cc1Cl [Example A31] |
| 0.104 | COc1cccc(-c2cc(Cl)c(C)cc2OCc2n[nH]c(=O)n2C)n1 [Example B21] |
| 0.008 | Cc1cc(OCc2n[nH]c(=O)n2C)c(C2CCCCC2)cc1Cl [Example A20] |
| 0.079 | Cc1nnc(-c2cccc(-c3cc(C#N)c(Cl)cc3OCc3n[nH]c(=O)n3C)c2)o1 [Example B37] |
| 0.008 | Cc1cc(OCc2n[nH]c(=O)n2C)c(-c2cccc(S(C)(=O)=O)c2)cc1Cl [Example B6] |
| 0.022 | COc1ncccc1-c1cc(Cl)c(C)cc1OCc1n[nH]c2ncccc12 [Example D20] |
| 0.23 | Cn1c(COc2ccc(S(C)(=O)=O)cc2C(C)(C)C)n[nH]c1=O [Example A15] |
| 0.082 | Cc1cc(OCc2n[nH]c(=O)n2C)c(-c2cccc(C(=O)NCCO)c2)cc1Cl [Example B36] |
| 0.001 | Cc1cc(OCc2ccc(=O)[nH]n2)c(C2CCC2)cc1Cl [Example C5, 3-[(4-chloro-2-cyclobutyl-5-methylphenoxy)methyl]-1H-pyridazin-6-one] |
| 5.98 | Cc1cc(OCc2ccc(=O)[nH]n2)c(-c2cccnc2O)cc1Cl [Example C11] |
| 0.007 | CCOC(=O)CNC(=O)c1cccc(-c2cc(Cl)c(C)cc2OCc2n[nH]c(=O)n2C)c1 [Example B46, Ethyl 2-[[3-[5-chloro-4-methyl-2-[(4-methyl-5-oxo-1H-1,2,4-triazol-3-yl)methoxy]phenyl]benzoyl]amino]acetate] |
| 0.018 | Cc1cc(OCc2cc[nH]n2)c(C(C)(C)C)cc1C#N [Example F2, 4-((1H-Pyrazol-3-yl)methoxy)-5-tert-butyl-2-methylbenzonitrile] |
| 0.022 | Cc1cc(OCc2ccc(=O)[nH]n2)c(C2CCOCC2)cc1Cl [Example C7, 3-[[4-chloro-5-methyl-2-(oxan-4-yl)phenoxy]methyl]-1H-pyridazin-6-one] |
| 80.4 | COCC(=O)N1CCc2[nH]nc(COc3cc(C)c(Cl)cc3C(C)(C)C)c2C1 [Example E3, 1-(3-((2-tert-Butyl-4-chloro-5-methylphenoxy)methyl)-6,7-dihydro-1H-pyrazolo[4,3-c]pyridin-5(4H)-yl)-2-methoxyethanone] |
| 0.019 | Cc1cc(OCc2ccc(=O)[nH]n2)c(C(C)C)cc1Cl [Example C1, 3-[(4-Chloro-5-methyl-2-propan-2-ylphenoxy)methyl]-1H-pyridazin-6-one] |
